Type in all cases: functional, cell-based
Assay [1] concerns the target T1, Cannabinoid receptor 1 (Homo sapiens, UniProt P21554). The assay can be described thus: Agonist activity at HA-tagged human CB1 receptor stably transfected in AtT20 cells incubated for 60 mins by FLIPR membrane potential assay.
Assay [2] addresses T1, Cannabinoid receptor 1. The assay can be described thus: Agonist activity at HA-tagged human CB1 receptor stably transfected in AtT20 cells assessed as maximal efficacy at 30 uM incubated for 60 mins by FLIPR membrane potential assay relative to control. As to conditions: filed as agonist.
For assay [3], the target named is T2, Cannabinoid receptor 2 (Homo sapiens, UniProt P34972). The assay is described as follows: Agonist activity at HA-tagged human CB2 receptor stably transfected in AtT20 cells incubated for 60 mins by FLIPR membrane potential assay.
Assay [4] addresses T2, Cannabinoid receptor 2. The assay is described as follows: Agonist activity at HA-tagged human CB2 receptor stably transfected in AtT20 cells assessed as maximal efficacy at 30 uM incubated for 60 mins by FLIPR membrane potential assay relative to control. To be noted: filed as agonist.
For assay [5], the target named is T1, Cannabinoid receptor 1. The assay is described as follows: Agonist activity at human CB1 receptor stably transfected in AtT20 cells assessed as maximal efficacy at 30 uM incubated for 60 mins by FLIPR membrane potential assay relative to control. To be noted: filed as agonist.
Assay [6] deals with T2, Cannabinoid receptor 2. The assay can be described thus: Agonist activity at human CB2 receptor stably transfected in AtT20 cells incubated for 60 mins by FLIPR membrane potential assay.
Assay [7] concerns the target T2, Cannabinoid receptor 2. The assay can be described thus: Agonist activity at human CB2 receptor stably transfected in AtT20 cells assessed as maximal efficacy at 30 uM incubated for 60 mins by FLIPR membrane potential assay relative to control. To be noted: filed as agonist.
The target of assay [8] is T1, Cannabinoid receptor 1. The assay is described as follows: Agonist activity at human CB1 receptor stably transfected in AtT20 cells incubated for 60 mins by FLIPR membrane potential assay.
Assay [9] concerns the target T1, Cannabinoid receptor 1. The assay can be described thus: Agonist activity at human CB1 receptor stably transfected in AtT20 cells assessed as maximal efficacy at 10 uM incubated for 60 mins by FLIPR membrane potential assay relative to control.
Assay [10] concerns the target T2, Cannabinoid receptor 2. The assay can be described thus: Agonist activity at human CB2 receptor stably transfected in AtT20 cells assessed as maximal efficacy at 10 uM incubated for 60 mins by FLIPR membrane potential assay relative to control.

T2 sequence (P34972 whole entry): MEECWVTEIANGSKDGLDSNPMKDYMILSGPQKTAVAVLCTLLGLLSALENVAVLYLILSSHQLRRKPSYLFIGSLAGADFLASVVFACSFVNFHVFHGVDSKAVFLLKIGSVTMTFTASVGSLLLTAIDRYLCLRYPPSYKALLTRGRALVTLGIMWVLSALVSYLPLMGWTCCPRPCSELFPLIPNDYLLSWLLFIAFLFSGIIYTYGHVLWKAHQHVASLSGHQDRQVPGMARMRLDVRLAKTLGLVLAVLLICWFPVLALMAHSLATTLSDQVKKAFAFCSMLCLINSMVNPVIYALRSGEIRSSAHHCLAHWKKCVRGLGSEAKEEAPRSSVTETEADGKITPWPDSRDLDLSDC
T1 sequence (P21554 whole entry): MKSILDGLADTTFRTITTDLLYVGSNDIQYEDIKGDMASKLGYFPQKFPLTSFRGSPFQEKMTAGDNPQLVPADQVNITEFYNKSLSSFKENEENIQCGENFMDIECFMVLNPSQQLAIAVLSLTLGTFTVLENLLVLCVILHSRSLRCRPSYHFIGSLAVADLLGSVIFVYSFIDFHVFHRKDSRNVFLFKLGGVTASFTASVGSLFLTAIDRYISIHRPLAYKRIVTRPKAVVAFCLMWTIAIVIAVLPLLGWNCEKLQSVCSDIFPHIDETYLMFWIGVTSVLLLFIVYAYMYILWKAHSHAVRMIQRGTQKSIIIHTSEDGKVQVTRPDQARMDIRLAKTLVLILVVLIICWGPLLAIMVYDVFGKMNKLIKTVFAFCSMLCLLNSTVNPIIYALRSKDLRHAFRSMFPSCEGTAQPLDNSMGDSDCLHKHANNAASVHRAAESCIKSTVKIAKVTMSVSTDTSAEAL

Regarding `COC(=O)[C@@H](NC(=O)c1cn(CCCCCF)c2ccccc12)C(C)C`, the EC50 at Cannabinoid receptor 1 [1] amounted to 2.4 nM; on Cannabinoid receptor 2 [3], 4.6 nM. Also, the Emax came to 107% on Cannabinoid receptor 1 [2] and 94% on Cannabinoid receptor 2 [4].
In the case of `COC(=O)[C@@H](CCSC)NC(=O)c1cn(CCCCCF)c2ccccc12`, the figures for the Emax on Cannabinoid receptor 1 [5] and at Cannabinoid receptor 2 [7] were 139% and 90%, respectively. Further, the values for the EC50 on Cannabinoid receptor 2 [6] and on Cannabinoid receptor 1 [8] (read-out: EC50) were 95 nM and 206 nM, respectively.
For `CC[C@H](C)[C@H](NC(=O)c1cn(CCCCCF)c2ccccc12)C(=O)OC`, in that order: 145%, 124%, 19.2 nM and 27.6 nM.
For `COC(=O)[C@@H](Cc1ccccc1)NC(=O)c1cn(CCCCCF)c2ccccc12`, in that order: 107%, 57%, 586 nM and 441 nM.
Turning to `COC(=O)[C@@H](CO)NC(=O)c1cn(CCCCCF)c2ccccc12`, the Emax on Cannabinoid receptor 1 [9] (filed as agonist) is 66%; on Cannabinoid receptor 2 [10] (filed as agonist), 46%.
As to `COC(=O)[C@@H](Cc1c[nH]c2ccccc12)NC(=O)c1cn(CCCCCF)c2ccccc12`, the Emax on Cannabinoid receptor 1 [9] is 9%; at Cannabinoid receptor 2 [10], 17%.
`COC(=O)[C@@H](NC(=O)c1cn(CCCCCF)c2ccccc12)[C@@H](C)O`: the values for the Emax at Cannabinoid receptor 1 [5] and on Cannabinoid receptor 2 [7] were 134% and 60%, respectively. Moreover, the EC50 at Cannabinoid receptor 2 [6] is 148 nM; at Cannabinoid receptor 1 [8] (read-out: EC50) it was 49 nM.
For the molecule `COC(=O)[C@H](CC(C)C)NC(=O)c1cn(CCCCCF)c2ccccc12`, the Emax at Cannabinoid receptor 1 [5] was 136%; on Cannabinoid receptor 2 [7], 99%. Further, the values for the EC50 on Cannabinoid receptor 2 [6] and at Cannabinoid receptor 1 [8] (read-out: EC50) were 7.16 nM and 25.5 nM, respectively.
The matching figures for `COC(=O)[C@@H](CC(C)C)NC(=O)c1cn(CCCCCF)c2ccccc12`: 150%, 112%, 53.2 nM and 23.9 nM.
The matching figures for `COC(=O)[C@H](NC(=O)c1cn(CCCCCF)c2ccccc12)[C@H](C)O`: 105%, 81%, 93.4 nM and 2310 nM.
Consider `COC(=O)[C@@H](Cc1ccc(O)cc1)NC(=O)c1cn(CCCCCF)c2ccccc12`, for which the results for the Emax at Cannabinoid receptor 1 [9] (filed as agonist) and at Cannabinoid receptor 2 [10] (filed as agonist) were 57% and 40%, respectively.
As to `COC(=O)[C@H](Cc1c[nH]c2ccccc12)NC(=O)c1cn(CCCCCF)c2ccccc12`, the maximal response (Emax) amounted to 34% at Cannabinoid receptor 1 [9] and 37% at Cannabinoid receptor 2 [10].
As to `COC(=O)[C@H](NC(=O)c1cn(CCCCCF)c2ccccc12)C(C)(C)C`, the Emax stood at 129% at Cannabinoid receptor 1 [5] and 96% on Cannabinoid receptor 2 [7]. The values for the EC50 on Cannabinoid receptor 2 [6] and at Cannabinoid receptor 1 [8] (read-out: EC50) were 56.5 nM and 16.4 nM, respectively.
Regarding `COC(=O)[C@H](Cc1ccccc1)NC(=O)c1cn(CCCCCF)c2ccccc12`, the figures for the Emax on Cannabinoid receptor 1 [5] and on Cannabinoid receptor 2 [7] were 108% and 99%, respectively. For the same molecule, the EC50 was 7.41 nM at Cannabinoid receptor 2 [6], 4.63 nM on Cannabinoid receptor 1 [8] (read-out: EC50) and 4.57 nM at Cannabinoid receptor 1 [8] (read-out: pEC50 (converted)).
For the molecule `COC(=O)[C@H]1CCCN1C(=O)c1cn(CCCCCF)c2ccccc12`, the Emax at Cannabinoid receptor 1 [9] came out at 33%; on Cannabinoid receptor 2 [10], 7%.
On to `COC(=O)[C@@H](NC(=O)c1cn(CCCCCF)c2ccccc12)C(C)(C)C`, for which the EC50 is 0.45 nM at Cannabinoid receptor 1 [1] and 7.4 nM at Cannabinoid receptor 2 [3]. Also, the figures for the Emax at Cannabinoid receptor 1 [2] and on Cannabinoid receptor 2 [4] were 110% and 94%, respectively.
For the molecule `COC(=O)[C@@H](C)NC(=O)c1cn(CCCCCF)c2ccccc12`, the results for the Emax at Cannabinoid receptor 1 [5] and on Cannabinoid receptor 2 [7] were 71% and 72%, respectively. The same molecule returned an EC50 at Cannabinoid receptor 2 [6] of 478 nM.
`COC(=O)[C@@H]1CCCN1C(=O)c1cn(CCCCCF)c2ccccc12`: the Emax on Cannabinoid receptor 1 [5] amounted to 106%; at Cannabinoid receptor 2 [7] it was 86%. Also, the EC50 at Cannabinoid receptor 2 [6] turned out to be 13.4 nM; at Cannabinoid receptor 1 [8] (read-out: EC50), 20.7 nM.
As to `COC(=O)[C@H](CCSC)NC(=O)c1cn(CCCCCF)c2ccccc12`, the Emax on Cannabinoid receptor 1 [5] was found to be 151%; on Cannabinoid receptor 2 [7], 81%. Further, the results for the EC50 on Cannabinoid receptor 2 [6] and on Cannabinoid receptor 1 [8] (read-out: EC50) were 59.6 nM and 358 nM, respectively.
The matching figures for `COC(=O)[C@H](CO)NC(=O)c1cn(CCCCCF)c2ccccc12`: 123%, 41%, 625 nM and 200 nM.
For `COC(=O)[C@H](C)NC(=O)c1cn(CCCCCF)c2ccccc12`, in that order: 108%, 86%, 59.5 nM and 78.8 nM.
`COC(=O)[C@H](CCC(N)=O)NC(=O)c1cn(CCCCCF)c2ccccc12`: the Emax is 94% on Cannabinoid receptor 1 [9] (filed as agonist) and 90% on Cannabinoid receptor 2 [7]. At Cannabinoid receptor 2 [6], this molecule registered an EC50 of 199 nM.
As to `COC(=O)[C@H](Cc1ccc(O)cc1)NC(=O)c1cn(CCCCCF)c2ccccc12`, the Emax is 135% at Cannabinoid receptor 1 [5] and 98% on Cannabinoid receptor 2 [7]. The EC50 at Cannabinoid receptor 2 [6] was determined as 87.7 nM; at Cannabinoid receptor 1 [8] (read-out: EC50) it was 182 nM.
For `COC(=O)[C@H](NC(=O)c1cn(CCCCCF)c2ccccc12)C(C)C`, in that order: 130%, 107%, 16.2 nM and 104 nM.
For `COC(=O)CNC(=O)c1cn(CCCCCF)c2ccccc12`, the Emax at Cannabinoid receptor 1 [9] (filed as agonist) stood at 40%; at Cannabinoid receptor 2 [10], 12%.
Take `COC(=O)[C@@H](CCC(N)=O)NC(=O)c1cn(CCCCCF)c2ccccc12`: the Emax was 116% at Cannabinoid receptor 1 [5] and 76% on Cannabinoid receptor 2 [7]. Also, the EC50 at Cannabinoid receptor 2 [6] came out at 445 nM; on Cannabinoid receptor 1 [8] (read-out: EC50), 3630 nM.
As to `COC(=O)[C@H](CCCCN)NC(=O)c1cn(CCCCCF)c2ccccc12`, the Emax at Cannabinoid receptor 1 [9] was 12%; at Cannabinoid receptor 2 [10] it was 4%.
Take `COC(=O)[C@@H](CCCCN)NC(=O)c1cn(CCCCCF)c2ccccc12`: the maximal effect (Emax) at Cannabinoid receptor 1 [9] (filed as agonist) was found to be 58%; on Cannabinoid receptor 2 [7], 74%. The molecule further returned an EC50 at Cannabinoid receptor 2 [6] of 1270 nM.
Turning to `CC[C@@H](C)[C@@H](NC(=O)c1cn(CCCCCF)c2ccccc12)C(=O)OC`, the Emax stood at 121% at Cannabinoid receptor 1 [5] and 107% on Cannabinoid receptor 2 [7]. In addition, the values for the EC50 at Cannabinoid receptor 2 [6] and on Cannabinoid receptor 1 [8] (read-out: EC50) were 26.8 nM and 33.5 nM, respectively.

For the origin of these results see ChEMBL document CHEMBL5532749, “Synthesis and functional evaluation of proteinogenic amino acid-derived synthetic cannabinoid receptor agonists related to MPP-5F-PICA, MMB-5F-PICA, and MDMB-5F-PICA” (RSC Med Chem, 2024).
